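Exposure lasted 48 hours, with cells grown in 96-well plates and compounds tested at five concentrations. TGI: total growth inhibition.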
Legend:
Assay in all cases: NCI tumour cell line growth inhibition, 48 h
CAKI-1 renal = tested on: CAKI-1 renal
DU-145 prostate = tested on: DU-145 prostate
EKVX NSCLC = tested on: EKVX NSCLC
HCC-2998 colon = tested on: HCC-2998 colon
HCT-15 colon = tested on: HCT-15 colon
IGROV1 ovarian = tested on: IGROV1 ovarian
NCI-H460 lung = tested on: NCI-H460 lung
OVCAR-4 ovarian = tested on: OVCAR-4 ovarian
SK-MEL-5 melanoma = tested on: SK-MEL-5 melanoma
SNB-19 CNS = tested on: SNB-19 CNS
SR leukemia = tested on: SR leukemia
TK-10 renal = tested on: TK-10 renal
UACC-62 melanoma = tested on: UACC-62 melanoma
UO-31 renal = tested on: UO-31 renal
SNB-75 CNS = tested on: SNB-75 CNS

Measured: TGI

N#Cc1c(N2CCOCC2)[nH]c(=O)c(C(c2c(Cl)cccc2Cl)c2c(O)c(C#N)c(N3CCOCC3)[nH]c2=O)c1O
33.5 µM: UO-31 renal
30.2 µM: UACC-62 melanoma
32.9 µM: OVCAR-4 ovarian
39 µM: EKVX NSCLC
28.2 µM: HCT-15 colon
35.4 µM: SK-MEL-5 melanoma
29.6 µM: SNB-19 CNS
69.2 µM: DU-145 prostate
32.5 µM: TK-10 renal
26.3 µM: SR leukemia
27.5 µM: HCC-2998 colon
> 100 µM: NCI-H460 lung
35.3 µM: IGROV1 ovarian
33.2 µM: CAKI-1 renal

CCCC[C@H]1CCN2C[C@@H](O)[C@@H](O)[C@H]2[C@@H]1O
not listed: SR leukemia
> 100 µM: all other assays above

O=C1Oc2cc3c(c4cccc1c24)O[C@H](c1ccccc1)[C@@H](c1ccccc1)[C@@H]3c1ccc(Cl)cc1
77.4 µM: IGROV1 ovarian
87.2 µM: SR leukemia
not listed: UO-31 renal | SNB-75 CNS
> 100 µM: all other assays above

CC(C)(C)S(=O)OC12CC3CC(CC(C3)C1)C2 (stereo not drawn)
not listed: CAKI-1 renal | DU-145 prostate | HCC-2998 colon
> 100 µM: all other assays above

CCOC(OC1=C(C#N)CCCC1)C(C)[Se]c1ccccc1 (stereo not drawn)
63.8 µM: SR leukemia
47.6 µM: OVCAR-4 ovarian
55.6 µM: SK-MEL-5 melanoma
63.2 µM: UACC-62 melanoma
not listed: DU-145 prostate
> 100 µM: all other assays above

Cn1c2ccccc2c(=O)c2[nH]c3ccccc3c21
99.8 µM: SNB-75 CNS
not listed: SR leukemia
> 100 µM: all other assays above

COc1ccc(N=[N+]([O-])c2ccc(OC)cc2)cc1
not listed: SR leukemia
> 100 µM: all other assays above

CCc1n[nH]c(=O)n1CCO
not listed: SR leukemia | SNB-75 CNS
> 100 µM: all other assays above

— PubChem BioAssay (NCI)
